Experiment [1] deals with weaned barrows. Description: Example 3: feeding trial in weaned piglets, glutamine and/or glutamic acid added to starter feed. The class given is in vivo. An excerpt:
120 weaned barrows were used and divided into 4 groups (30 animals for each group, 6 replications with 5 animals per replication), namely a control group (C), a glutamine alone administration group (GLN), a glutamic acid alone administration group (GLU) and a glutamine+glutamic acid mixture administration group (GLN+GLU). Piglets were weaned at 17 days of age in average. Also, the GLN group was provided with an experimental feed prepared by adding crystalline glutamine at 1.2% per feed weight to the starter feed, the GLU group with an experimental feed prepared by adding crystalline glutamic acid at 1.2% per feed weight to the starter feed, and the GLN+GLU group with an experimental feed prepared by adding glutamine and glutamic acid at 0.12% and 1.08%, respectively, per feed weight to the starter feed. After two weeks passed, a common feed was fed to all groups. Body weight and residual feed weight were measured to calculate feed intake, body weight gain and feed efficiency on the 14th and 21st days after the weaning.

Experiment [2] relates to Weaned piglets. Description: Example 1: feeding trial in weaned piglets, nucleic acid and/or glutamine added to starter feed. The class given is in vivo. The text has this: Weaned piglets, 72 barrows and 72 gilts were used and divided into 4 groups (36 animals for each group, 6 replications with 6 animals per replication), namely a control group (C), a nucleic acid alone administration group (N), a glutamine alone administration group (G) and a nucleic acid+glutamine mixture administration group (N+G). Piglets were weaned at 17 days of age in average. Also, the N group was provided with an experimental feed prepared by adding commercially available ribonucleic acid extracted from beer yeast (manufactured by Kirin Brewery CO., LTD.) at 0.8% per feed weight to the starter feed, the G group with an experimental feed prepared by adding crystalline glutamine at 1.2% per feed weight to the starter feed, and the N+G group with an experimental feed prepared by adding ribonucleic acid and glutamine at 0.8% and 1.2%, respectively, per feed weight to the starter feed. After two weeks passed, a common diet was fed to all groups. Body weight and residual feed weight were measured to calculate feed intake, body weight gain and feed efficiency on the 7th, 14th, 21st and 28th days after the weaning.

Experiment [3] deals with Small Intestinal Villi. As to the kind of experiment: Example 4: effect on recovery of small intestinal villi (villi length, crypt thickness by optical microscope). The class given is in vivo, piglets. As to conditions: 7th day after weaning. The text has this:
24 weaned barrows were used and divided into 4 groups (6 animals for each group), namely a control group (C), a nucleic acid alone administration group (N), a glutamic acid alone administration group (G) and a nucleic acid+glutamic acid mixture administration group (N+G). Piglets were weaned at 17 days of age in average. Also, the N group was provided with an experimental feed prepared by adding commercially available ribonucleic acid extracted from beer yeast (manufactured by Kirin Brewery CO., LTD.) at 0.8% per feed weight to the starter feed, the G group with an experimental feed prepared by adding crystalline glutamic acid at 1.2% per feed weight to the starter feed, and the N+G group with an experimental feed prepared by adding ribonucleic acid and glutamic acid at 0.12% of and 1.08%, respectively, per feed weight to the starter feed. On the 7th day after weaning, all piglets were sacrificed to collect the small intestines. After the preparation of tissue sections from the collected small intestines by a general procedure, the length of villi and the thickness of crypt were measured using optical microscope.

The test system of experiment [4] is weaned barrows. Description: Example 2: feeding trial in weaned piglets, nucleic acid and/or glutamic acid added to starter feed. The class given is in vivo. The text has this: 120 weaned barrows were used and divided into 4 groups (30 animals for each group, 6 replications with 5 animals per replication), namely a control group (C), a nucleic acid alone administration group (N), a glutamic acid alone administration group (G) and a nucleic acid+glutamic acid mixture administration group (N+G). Piglets were weaned at 17 days of age in average. Also, the N group was provided with an experimental feed prepared by adding commercially available ribonucleic acid extracted from beer yeast (manufactured by Kirin Brewery CO., LTD.) at 0.8% per feed weight to the starter feed, the G group with an experimental feed prepared by adding crystalline glutamic acid at 1.2% per feed weight to the starter feed, and the N+G group with an experimental feed prepared by adding ribonucleic acid and glutamic acid at 0.12% and 1.08%, respectively, per feed weight to the starter feed. Body weight and residual feed weight were measured to calculate feed intake, body weight gain and feed efficiency on the 7th and 14th days after the weaning.

The mark [5] stands for this setting: 8 to 14 days after weaning, not statistically significant.

Marks after values point to notes of the source that are not given here.

In experiment [1] (1 to 14 days (test feed)), `N[C@@H](CCC(=O)O)C(=O)O` [G, glutamic acid] showed an Average feed intake of 0.225 kg/day, a Body weight gain of 0.156 kg/day and a Feed efficiency of 1.453 Feed kg/Gain kg. Besides, in experiment [1] (15 to 21 days (common feed)), the Average feed intake is 0.459 kg/day, the Body weight gain is 0.342 kg/day and the Feed efficiency is 1.333 Feed kg/Gain kg.

In experiment [1] (1 to 14 days (test feed)), `NC(=O)CC[C@H](N)C(=O)O` [G, glutamine] showed an Average feed intake of 0.211 kg/day, a Body weight gain of 0.147 kg/day and a Feed efficiency of 1.439 Feed kg/Gain kg. In experiment [1] (15 to 21 days (common feed)), this compound displayed an Average feed intake of 0.446 kg/day, a Body weight gain of 0.351 kg/day and a Feed efficiency of 1.280 Feed kg/Gain kg.

For the compound ribonucleic acid, the Average feed intake in experiment [2] (0 to 7 days) is given as 0.159 kg/day; in experiment [2] (0 to 28 days), 0.463 kg/day; in experiment [2] (7 to 14 days) it was 0.377 kg/day; in experiment [2] (14 to 21 days), 0.525 kg/day; in experiment [2] (21 to 28 days) it was 0.797 kg/day; in experiment [4] (0 to 7 days), 0.151^ab kg/day. Also, the Average feed intake in experiment [4] (8 to 14 days) is 0.291 kg/day. In addition, the Body weight gain in experiment [2] (0 to 7 days) is 0.116 kg/day; in experiment [2] (0 to 28 days), 0.281 kg/day; in experiment [2] (7 to 14 days) it was 0.301 kg/day; in experiment [2] (14 to 21 days) it was 0.274 kg/day; in experiment [2] (21 to 28 days) it was 0.432 kg/day; in experiment [4] (0 to 7 days), 0.102^b kg/day. Besides, the Body weight gain in experiment [4] (8 to 14 days) came to 0.234 kg/day. In addition, the Feed efficiency in experiment [2] (0 to 7 days) is listed as 1.392 Feed kg/Gain kg; in experiment [2] (0 to 28 days), 1.648^bc Feed kg/Gain kg; in experiment [2] (7 to 14 days) it was 1.256 Feed kg/Gain kg; in experiment [2] (14 to 21 days), 1.945 Feed kg/Gain kg; in experiment [2] (21 to 28 days), 1.852 Feed kg/Gain kg; in experiment [4] (0 to 7 days) it was 1.490 Feed kg/Gain kg. In addition, the Feed efficiency in experiment [4] (8 to 14 days) stood at 1.252 Feed kg/Gain kg. In addition, the Average body weight is 6.17 kg in experiment [2] (7 days after weaning, test feed days 0-14); 8.28 kg in experiment [2] (14 days after weaning, test feed days 0-14); 10.20 kg in experiment [2] (21 days after weaning, common diet after day 14); 13.23 kg in experiment [2] (28 days after weaning, common diet after day 14); 5.36 kg in experiment [2] (at the time of weaning (baseline)). Further, the “improvement in feed efficiency compared to the C group (in words)” value in experiment [2] (whole test period (0 to 28 days after weaning)) was “slight improvement in feed efficiency”. Also, the Crypt thickness in experiment [3] (Duodenum) is given as 130^ab μm; in experiment [3] (Ileum), 128^b μm; in experiment [3] (Jejunum), 136^b μm. For the same compound, the Villi length in experiment [3] (Duodenum) was 385^b μm; in experiment [3] (Ileum) it was 344^ab μm; in experiment [3] (Jejunum), 406^b μm. Further, in experiment [3] (duodenum, N and G vs C, N+G vs N and G), the “villi length compared between groups (in words)” value is “significantly longer”. In addition, the “crypt thickness compared with the C and G group (in words)” value in experiment [3] (jejunum and ileum) is given as “significantly thicker”. Besides, the “body weight gain per day compared with C group (in words)” value in experiment [4] (setting [5]) is on record as “further increased”. The “feed efficiency compared to the C group and G group (in words)” value in experiment [4] (setting [5]) was “tendency to be improved”. Further, the “body weight gain per day compared with the other groups (in words)” value in experiment [4] (7 days just after weaning) was “not different from the C group”.

For the origin of these results see patent US6777396B2, “Feed for livestock” (Ajinomoto Co., Inc., priority 2000, dated 2004).
